Measurements: ChEMBL document CHEMBL4715789, “Identification of a Potential Antimalarial Drug Candidate from a Series of 2-Aminopyrazines by Optimization of Aqueous Solubility and Potency across the Parasite Life Cycle” (J Med Chem, 2016)
In brackets after ≈: the same amount, converted by molar mass.

Legend:
[1] = Selectivity index, ratio of IC50 for cytotoxicity against CHO cells by MTT assay to IC50 for antiplasmodial activity against multidrug-sensitive Plasmodium falciparum NF54 infected in human erythrocytes; format: toxicity, cell-based; conditions: Chinese hamster, read-out: Ratio IC50
[2] = target: Voltage-gated inwardly rectifying potassium channel KCNH2 (Homo sapiens, UniProt Q12809); experiment: Inhibition of human ERG by IonWorks patch clamp electrophysiology method
hERG (KCNH2) = experiment: Selectivity ratio of IC50 for inhibition of human ERG by IonWorks patch clamp electrophysiology method to IC50 for antiplasmodial activity against multidrug-sensitive Plasmodium falciparum NF54 infected in human erythrocytes; format: toxicity, cell-based; conditions: read-out: Ratio IC50
[3] = Aqueous solubility of compound in pH 2 0.01M HCl incubated for 2 hrs under shaking condition by shake-flask method based HPLC-DAD analysis; format: physicochemical
[4] = Aqueous solubility of compound in pH 6.5 PBS incubated for 2 hrs under shaking condition by shake-flask method based HPLC-DAD analysis; format: physicochemical
[5] = Metabolic stability in human liver microsomes assessed as compound remaining at 0.1 uM measured after 30 mins in presence of cofactor NADPH by LC-MS/MS analysis; format: ADME, Microsome; conditions: read-out: Stabilty
[6] = Metabolic stability in rat liver microsomes assessed as compound remaining at 0.1 uM measured after 30 mins in presence of cofactor NADPH by LC-MS/MS analysis; format: ADME, Microsome; conditions: read-out: Stabilty
[7] = Metabolic stability in mouse liver microsomes assessed as compound remaining at 0.1 uM measured after 30 mins in presence of cofactor NADPH by LC-MS/MS analysis; format: ADME, Microsome; conditions: read-out: Stabilty
Plasmodium berghei [8] = experiment: Antiplasmodial activity against Plasmodium berghei ANKA infected in NMRI mouse assessed as reduction in parasitemia at 10 mg/kg, po qd for 4 consecutive days measured at day 7 post infection by flow cytometry analysis; format: functional; design: scale not given: the % may be the effect or the level left; conditions: time 4 day
Plasmodium berghei [9] = experiment: Antiplasmodial activity against Plasmodium berghei ANKA infected in NMRI mouse assessed as reduction in parasitemia at 3 mg/kg, po qd for 4 consecutive days measured at day 7 post infection by flow cytometry analysis; format: functional; design: scale not given: the % may be the effect or the level left; conditions: time 4 day
Plasmodium berghei [10] = experiment: Antiplasmodial activity against Plasmodium berghei ANKA infected in NMRI mouse model assessed as mean survival days at 10 mg/kg, po qd for 4 consecutive day; format: functional; conditions: time 4 day
Plasmodium berghei [11] = experiment: Antiplasmodial activity against Plasmodium berghei ANKA infected in NMRI mouse model assessed as mean survival days at 3 mg/kg, po qd for 4 consecutive day; format: functional; conditions: time 4 day
Plasmodium berghei [12] = experiment: Antiplasmodial activity against Plasmodium berghei ANKA infected in NMRI mouse model assessed as reduction in parasitemia administered orally once a day for 4 consecutive days measured at day 7 post infection by flow cytometry analysis; format: functional; conditions: po, 96 h, time 4 day
Plasmodium falciparum [13] = experiment: Antiplasmodial activity against Plasmodium falciparum 3D70087/N9 infected in NOD-SCID IL2Rgamma null mouse assessed as reduction in parasitemia administered orally on day 3 to 6 post-infection and measured day 7 post infection by TER-119-PE and […] dye based flow cytometry; format: functional; conditions: 3D70087/N9, po, 120 h, time 5 day
Plasmodium falciparum [14] = experiment: Antimalarial activity against Plasmodium falciparum 3D70087/N9 infected in NOD-SCID IL2Rgamma null mouse assessed as blood AUC level require to show 90% reduction in parasitemia administered orally on day 3 to 6 post-infection and measured day 7 post infection; format: functional, organism-based; conditions: time 5.0 day
[15] = AUC(app) in NMRI mouse plasma infected with Plasmodium berghei ANKA at 3 mg/kg, po qd for 4 consecutive days and measured post last dose; format: ADME, organism-based; conditions: time 4 day
[16] = Cmax(app) in NMRI mouse plasma infected with Plasmodium berghei ANKA at 3 mg/kg, po qd for 4 consecutive days and measured post last dose; format: ADME, organism-based; conditions: time 4 day
[17] = Apparent average plasma concentration in NMRI mouse plasma infected with Plasmodium berghei ANKA at 3 mg/kg, po qd for 4 consecutive days and measured post last dose; format: ADME, organism-based; conditions: in vivo, 96 h, time 4 day
[18] = Oral bioavailability in Sprague-dawley rat at 15 mg/kg by LC-MS/MS analysis; format: ADME, organism-based; conditions: in vivo
Plasmodium berghei [19] = experiment: Antiplasmodial activity against luciferase expressing Plasmodium berghei sporozoites infected in human HepG2 cells preincubated with compound for 18 hrs followed by plasmodium infection measured after 48 hrs by bioluminescence assay; format: functional, organism-based
Plasmodium falciparum [20] = experiment: Antiplasmodial activity against late stage (IV/V) Plasmodium falciparum NF54 gametocytes incubated for 48 hrs by luciferase reporter gene assay; format: functional, organism-based; conditions: NF54, 48 h
Plasmodium falciparum [21] = experiment: Antiplasmodial activity against early stage (II/III) Plasmodium falciparum NF54 gametocytes incubated for 48 hrs by luciferase reporter gene assay; format: functional, organism-based; conditions: NF54, 48 h
Plasmodium falciparum [22] = experiment: microbe, parasite or virus in culture; conditions: NF54, Erythrocyte
Description: Antiplasmodial activity against multidrug-sensitive Plasmodium falciparum NF54 infected in human erythrocytes assessed as reduction in [3H]hypoxanthine incorporation preincubated for 48 hrs followed by [3H]hypoxanthine addition and measured after 24 hrs by liquid scintillation counting method

Plasmodium falciparum [23] = experiment: microbe, parasite or virus in culture; conditions: K1, Erythrocyte
Description: Antiplasmodial activity against multidrug-resistant Plasmodium falciparum K1 infected in erythrocytes assessed as reduction in [3H]hypoxanthine incorporation preincubated for 48 hrs followed by [3H]hypoxanthine addition and measured after 24 hrs by liquid scintillation counting method

Voltage-gated inwardly rectifying potassium channel KCNH2, sequence (Q12809 whole entry): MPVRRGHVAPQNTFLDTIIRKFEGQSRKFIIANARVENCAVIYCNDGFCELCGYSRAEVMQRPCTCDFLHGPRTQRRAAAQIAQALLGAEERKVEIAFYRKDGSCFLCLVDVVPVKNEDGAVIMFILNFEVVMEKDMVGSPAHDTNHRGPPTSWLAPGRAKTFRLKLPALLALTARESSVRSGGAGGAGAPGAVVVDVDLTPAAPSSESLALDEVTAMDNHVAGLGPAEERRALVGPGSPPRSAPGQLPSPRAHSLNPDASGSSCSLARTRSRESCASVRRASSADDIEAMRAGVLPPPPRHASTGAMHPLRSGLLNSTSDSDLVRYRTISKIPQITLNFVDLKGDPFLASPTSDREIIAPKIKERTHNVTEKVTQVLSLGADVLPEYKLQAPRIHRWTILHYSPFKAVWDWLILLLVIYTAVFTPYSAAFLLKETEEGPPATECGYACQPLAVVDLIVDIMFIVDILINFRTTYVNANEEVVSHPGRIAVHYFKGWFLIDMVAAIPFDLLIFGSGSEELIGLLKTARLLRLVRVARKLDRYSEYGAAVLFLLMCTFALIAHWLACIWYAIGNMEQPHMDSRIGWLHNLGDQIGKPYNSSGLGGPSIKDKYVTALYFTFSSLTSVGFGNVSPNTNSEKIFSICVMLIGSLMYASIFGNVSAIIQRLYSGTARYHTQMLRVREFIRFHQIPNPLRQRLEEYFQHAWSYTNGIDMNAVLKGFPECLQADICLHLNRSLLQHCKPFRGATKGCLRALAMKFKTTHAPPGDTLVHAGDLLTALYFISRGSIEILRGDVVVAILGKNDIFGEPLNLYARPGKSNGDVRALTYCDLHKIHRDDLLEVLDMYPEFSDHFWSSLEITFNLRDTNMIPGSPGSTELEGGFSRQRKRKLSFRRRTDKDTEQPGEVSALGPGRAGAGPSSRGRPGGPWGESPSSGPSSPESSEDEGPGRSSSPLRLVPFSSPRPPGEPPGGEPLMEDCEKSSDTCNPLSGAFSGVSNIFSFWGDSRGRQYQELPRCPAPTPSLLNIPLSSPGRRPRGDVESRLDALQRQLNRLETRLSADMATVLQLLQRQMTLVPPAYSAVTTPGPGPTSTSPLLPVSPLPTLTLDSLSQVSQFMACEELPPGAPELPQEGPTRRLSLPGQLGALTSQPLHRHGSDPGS

Nc1ncc(-c2ccc(C(=O)O)cc2)nc1-c1ccc(C(F)(F)F)cc1
selectivity ratio [1]: > 1800 | IC50 [2]: > 33000 nM | selectivity ratio (hERG (KCNH2)): > 1000 | solubility thermodynamic at 2 h [3]: < 5 µM | solubility thermodynamic at 2 h [4]: 95 µM (≈ 34.1 µg/mL) | remaining at 0.5 h, 0.1 µM [5]: > 90% | remaining at 0.5 h, 0.1 µM [6]: > 90% | remaining at 0.5 h, 0.1 µM [7]: > 90% | Activity (Plasmodium berghei [8]): 99.9% | Activity (Plasmodium berghei [9]): 99.9% | MSD (Plasmodium berghei [10]): >30 days | MSD (Plasmodium berghei [11]): 14 days | ED90 (Plasmodium berghei [12]): 0.56 mg/kg | ED90 (Plasmodium falciparum [13]): < 0.1 mg/kg | AUC (Plasmodium falciparum [14]): 200 ng·h/mL | AUC at 96 h [15]: 79.7 µM·h | Cmax [16]: 5 µM | Cave [17]: 3.5 µM | bioavailability [18]: 94% | IC50 (Plasmodium berghei [19]): 51 nM | IC50 (Plasmodium falciparum [20]): 729 nM | IC50 (Plasmodium falciparum [21]): 649 nM | IC50 (Plasmodium falciparum [22]): 33 nM | IC50 (Plasmodium falciparum [23]): 32 nM
